Among the test systems are HCC 2998; MDA-N; HT-29; SF-268; NCI-H23; HOP-62; RXF 393; A498; TK-10; NCI-H522; LOX IMVI; MCF7; Hs-578T; MDA-MB-231; CAKI-1; T47D; SF-539; MOLT-4; SW-620; SR.
Holding throughout (assay): NCI anticancer screen, dose series, 48 h

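In this assay, cells in 96-well plates receive the compound at five concentrations for 48 hours. Endpoints are linearly interpolated between the surrounding concentrations. GI50: concentration for 50% inhibition of growth.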 The source made the active and inactive calls. Cut-off read from the data, not from the text of the source: active = GI50 up to about 1.1 µM and inactive = higher. Some results are limits rather than exact numbers.

As to `COC(=O)c1c(O)ccc2c1c1c(n2-c2ccc(OC)cc2)C(=O)c2ccccc2C1=O`, the GI50 was 3.62 µM (inactive) with HCC 2998; 57.1 µM (inactive) in the experiment with MDA-N; 4.14 µM (inactive) with HT-29; 14.8 µM (inactive) in the experiment with SF-268; 36.7 µM (inactive) with NCI-H23; 20.2 µM (inactive) in the experiment on HOP-62. Besides, the GI50 was 13 µM (inactive) with RXF 393; > 100 µM (inactive) in the experiment on A498; 12 µM (inactive) with TK-10; 15.1 µM (inactive) with NCI-H522; 21.7 µM (inactive) with LOX IMVI; 16.6 µM (inactive) with MCF7. In addition, the GI50 in the experiment with Hs-578T was 16.9 µM (inactive); in the experiment with MDA-MB-231, 16.5 µM (inactive); in the experiment with CAKI-1, 14.1 µM (inactive); in the experiment with T47D, 11.7 µM (inactive); in the experiment on SF-539, 15.3 µM (inactive); in the experiment on MOLT-4 it was 8.28 µM (inactive). Also, the GI50 with SW-620 is 42.3 µM (inactive).

For `COc1cc(/C=C/C(=O)N[C@@H]2C(=O)N3[C@@H]2SC(C)(C)[C@@H]3C(=O)O)cc(OC)c1OC`, the GI50 in the experiment with HCC 2998, in the experiment on MDA-N, with HT-29, with SF-268, in the experiment with NCI-H23 and in the experiment on RXF 393 was > 100 µM (inactive) in each case. The GI50 in the experiment on A498, with TK-10, in the experiment on NCI-H522, in the experiment on LOX IMVI, in the experiment on MCF7 and with Hs-578T was > 100 µM (inactive) in each case. Moreover, the GI50 with MDA-MB-231, with CAKI-1, with T47D, with SF-539, in the experiment with MOLT-4 and in the experiment on SW-620 was > 100 µM (inactive) in each case.

As to `CCC1(CC)C(=O)N(C(=O)c2ccc(C)cc2)N(C(=O)c2ccc(C)cc2)C1=O`, the GI50 with HCC 2998 was > 75 µM (inactive); in the experiment on MDA-N it was 63.2 µM (inactive); in the experiment with HT-29 it was > 75 µM (inactive); in the experiment on SF-268 it was 27.7 µM (inactive); in the experiment with NCI-H23, 27.2 µM (inactive); with HOP-62, 65.6 µM (inactive). The GI50 is > 75 µM (inactive) in the experiment on RXF 393; 73.1 µM (inactive) in the experiment with TK-10; 16.8 µM (inactive) in the experiment on NCI-H522; 26.2 µM (inactive) in the experiment with SR; 33.2 µM (inactive) in the experiment with LOX IMVI; 45.5 µM (inactive) in the experiment with MCF7. Further, the GI50 with Hs-578T is > 75 µM (inactive); with MDA-MB-231 it was > 75 µM (inactive); in the experiment on CAKI-1, 52 µM (inactive); with T47D it was 36.1 µM (inactive); in the experiment with MOLT-4 it was 20 µM (inactive); in the experiment with SW-620, 29.8 µM (inactive).

For the compound `c1ccc2c(c1)[nH]c1nc3cc(-c4ccc5nc6c(nc5c4)[nH]c4ccccc46)ccc3nc12`, the GI50 in the experiment with HCC 2998 was > 79.1 µM (inactive); in the experiment on MDA-N, > 100 µM (inactive); in the experiment on HT-29, > 100 µM (inactive); with SF-268, > 100 µM (inactive); in the experiment on NCI-H23 it was > 59 µM (inactive); in the experiment on HOP-62 it was > 93.5 µM (inactive). In addition, the GI50 in the experiment on RXF 393 was > 100 µM (inactive); in the experiment with A498, > 100 µM (inactive); with TK-10, > 100 µM (inactive); in the experiment on NCI-H522, 5.42 µM (inactive); in the experiment with LOX IMVI it was > 39.9 µM (inactive); in the experiment on MCF7, 20.5 µM (inactive). Also, the GI50 in the experiment on Hs-578T is > 100 µM (inactive); in the experiment with MDA-MB-231, > 34.5 µM (inactive); in the experiment with CAKI-1 it was > 100 µM (inactive); in the experiment on T47D, > 100 µM (inactive); in the experiment on MOLT-4, 0.166 µM (active); in the experiment on SW-620 it was > 100 µM (inactive).

For `C[N+](C)(C)C1=NNC2=Nc3ccccc3SC2=C1`, the GI50 with HCC 2998 was 24.4 µM (inactive); in the experiment with MDA-N, 17.8 µM (inactive); in the experiment on HT-29, 13.5 µM (inactive); in the experiment with SF-268 it was 35 µM (inactive); in the experiment with NCI-H23, 28.9 µM (inactive); in the experiment with HOP-62 it was 22.8 µM (inactive). For the same compound, the GI50 in the experiment on RXF 393 was 20.4 µM (inactive); in the experiment with A498 it was 26.4 µM (inactive); with TK-10, 37.1 µM (inactive); with NCI-H522 it was 15.9 µM (inactive); in the experiment on LOX IMVI, 18.8 µM (inactive); in the experiment with MCF7, 18.6 µM (inactive). The GI50 with Hs-578T is 30 µM (inactive); with MDA-MB-231, 14.6 µM (inactive); with CAKI-1, 32.3 µM (inactive); with T47D, 4.11 µM (inactive); in the experiment with MOLT-4 it was 13 µM (inactive); in the experiment on SW-620, 24.4 µM (inactive).

For the compound `CC(=O)OCCOc1cc2c([nH]c3ccccc32)c(C)c2cccc1-2`, the GI50 with MDA-N is 3.16 µM (inactive); with HT-29, 3.78 µM (inactive); in the experiment on SF-268 it was 2.47 µM (inactive); in the experiment on NCI-H23, 1.94 µM (inactive); in the experiment on HOP-62, 4.6 µM (inactive); in the experiment on RXF 393 it was 1.95 µM (inactive). In addition, the GI50 in the experiment with A498 is 8.93 µM (inactive); in the experiment on TK-10 it was 2.2 µM (inactive); with NCI-H522, 1.84 µM (inactive); with SR it was 2.92 µM (inactive); in the experiment on LOX IMVI, 2.61 µM (inactive); in the experiment on MCF7, 2.94 µM (inactive). Besides, the GI50 was 3.47 µM (inactive) in the experiment with Hs-578T; 1.66 µM (inactive) in the experiment on MDA-MB-231; 2.12 µM (inactive) in the experiment on CAKI-1; 1.92 µM (inactive) in the experiment on T47D; 1.91 µM (inactive) with SF-539; 3.33 µM (inactive) in the experiment with MOLT-4. The GI50 in the experiment on SW-620 is 2.7 µM (inactive).

Turning to `CN/C(=N\N=C1/C(=O)Nc2ccccc21)SCC(=O)c1ccc(Br)cc1`, the GI50 in the experiment on HCC 2998 was 5.26 µM (inactive); in the experiment with MDA-N, 21.3 µM (inactive); in the experiment with HT-29, 8.59 µM (inactive); with SF-268, 18.6 µM (inactive); in the experiment on NCI-H23, 15.6 µM (inactive); with HOP-62, 5.19 µM (inactive). In addition, the GI50 was 5.04 µM (inactive) with RXF 393; 17.4 µM (inactive) in the experiment on A498; 15 µM (inactive) with TK-10; 15.5 µM (inactive) with NCI-H522; 8.38 µM (inactive) with LOX IMVI; 3.48 µM (inactive) with MCF7. Besides, the GI50 is 10.9 µM (inactive) with Hs-578T; 5.81 µM (inactive) in the experiment on MDA-MB-231; 28.8 µM (inactive) with CAKI-1; 9.48 µM (inactive) with T47D; 6.38 µM (inactive) in the experiment on SF-539; 2.86 µM (inactive) in the experiment on MOLT-4. For the same compound, in the experiment with SW-620, the GI50 is 2.42 µM (inactive).

Turning to `CC1CC(=O)NC2CC1C2(C)C` (centres undefined), the GI50 with HCC 2998, in the experiment on MDA-N, in the experiment with HT-29, in the experiment on SF-268, with NCI-H23 and in the experiment with RXF 393 was > 100 µM (inactive) throughout. For the same compound, the GI50 in the experiment with TK-10, in the experiment on NCI-H522, in the experiment on SR, in the experiment on LOX IMVI, in the experiment with MCF7 and in the experiment on Hs-578T was > 100 µM (inactive) in each case. For the same compound, the GI50 in the experiment on MDA-MB-231, in the experiment on T47D, with MOLT-4 and in the experiment with SW-620 was > 100 µM (inactive) each time.

On to `CCC1=C(C)C(=O)N/C1=C\c1[nH]c(C)c([C@H](C)CCN)c1C`, for which the GI50 is 15.3 µM (inactive) with MDA-N; 15.7 µM (inactive) in the experiment with HT-29; 16.2 µM (inactive) in the experiment on SF-268; 13.3 µM (inactive) in the experiment with NCI-H23; 16.6 µM (inactive) with HOP-62; 18.6 µM (inactive) in the experiment on A498. Also, the GI50 is 11.6 µM (inactive) with NCI-H522; 50.6 µM (inactive) in the experiment on SR; 15.3 µM (inactive) in the experiment with LOX IMVI; 15.5 µM (inactive) in the experiment on MCF7; 11.9 µM (inactive) with Hs-578T; 17.4 µM (inactive) in the experiment on MDA-MB-231. In addition, the GI50 with CAKI-1 is 17.1 µM (inactive); in the experiment with T47D, 9.98 µM (inactive); with SF-539, 0.0944 µM (active); in the experiment on MOLT-4, 34 µM (inactive); with SW-620 it was 16.6 µM (inactive).

As to `COC(=O)c1cn(CCCCO)nn1`, the GI50 in the experiment with HCC 2998, in the experiment with MDA-N, in the experiment on HT-29, in the experiment with SF-268, in the experiment with NCI-H23 and in the experiment on HOP-62 was > 100 µM (inactive) in each case. In addition, the GI50 in the experiment with RXF 393, with TK-10, with SR, in the experiment on LOX IMVI, with MCF7 and in the experiment with Hs-578T was > 100 µM (inactive) each time. The GI50 with MDA-MB-231 is > 100 µM (inactive); with CAKI-1 it was > 100 µM (inactive); in the experiment on T47D, 3.65 µM (inactive); in the experiment with SF-539, > 100 µM (inactive); in the experiment with MOLT-4, > 100 µM (inactive); with SW-620, > 100 µM (inactive).

For the compound `CC[n+]1[b-](C(C)(C)C)n(/N=C(\C)C(C)(C)C)[b-](C(C)(C)C)[n+]1CC`, the GI50 in the experiment with HCC 2998 was > 100 µM (inactive); in the experiment with MDA-N, > 10 µM (inactive); in the experiment with HT-29 it was > 100 µM (inactive); in the experiment on SF-268, > 100 µM (inactive); with NCI-H23, > 100 µM (inactive); in the experiment on HOP-62 it was > 100 µM (inactive). The GI50 was > 100 µM (inactive) in the experiment on RXF 393; > 100 µM (inactive) in the experiment on TK-10; > 100 µM (inactive) in the experiment on NCI-H522; 23.6 µM (inactive) in the experiment on SR; > 100 µM (inactive) in the experiment on LOX IMVI; > 100 µM (inactive) in the experiment on MCF7. The GI50 in the experiment on Hs-578T, with MDA-MB-231, in the experiment on CAKI-1, with T47D, in the experiment with SF-539 and in the experiment with MOLT-4 was > 100 µM (inactive) in each case. For the same compound, the GI50 in the experiment on SW-620 was > 100 µM (inactive).

Source of the values: ChEMBL document CHEMBL1201862, “PubChem BioAssay data set” (2004).
